# According to patent US20200289611A1, “Methods and Compositions for the Inhibition of Quorum Sensing in Bacterial Infections” (priority 2016, published 2020):
# “Also recorded” adds a separate entry of the source. Read-outs that look alike come from different tables or passages of the source.
# Key:
# [1] = system: AgrC; test: Constitutive AgrC mutant (R235H) assays; type: cell-based, Staphylococcus aureus
# Experimental: (§1) To investigate the mechanisms by which apicidin inhibits quorum sensing, a series of in vitro assays were conducted to systematically assess the relative contribution of each of the core genetic elements of the agrBDCA operon (FIG. 13A). The membrane embedded peptidase AgrB, is responsible for processing the AgrD pro-peptide (immature AIP) for extracellular release. To determine if apicidin inhibits agr signaling at the level of AIP signal generation, an established system was used whereby the agrBD genes (under sarA P1 promoter regulation), were integrated into an agr null strain derived from the USA300 isolate LAC (40). This construct enables alterations to AIP signal biosynthesis to be clearly delineated from regulation stemming from signal integration. […] Next, the possibility that apicidin interferes with the sensory activity of AIP receptor AgrC was explored. For this, a R235H construct bearing a point mutation that confers constitutive AgrC activity, and thereby enables phospho-activation of AgrA to occur independently of AIP binding, was employed. […] Next, it was determined if AgrA serves as the target of apicidin. To this end, an agr null reporter construct, whereby agrP3 lux activation can only be achieved through the constitutive production of plasmid encoded AgrA […], was employed. […]
# [2] = system: MRSA (USA300 LAC); test: Intradermal MRSA skin infection model; type: in vivo, mice (C57BL/6 and BALB/c); details: for cutaneous bacterial burden: Lux+ MRSA bioluminescence (IVIS)
# Experimental: At D0, age, strain and sex matched mice were anesthetized with isoflurane, abdominal skin was carefully shaved and exposed skin was cleansed by wiping with an alcohol prep pad. For inoculum preparation, a USA 300 MRSA strain (AH1263), its deletion mutant, LAC strains engineered for constitutive bioluminescence via lux operon insertion (AH3700) or the Lux+ LAC engineered to constitutively express red fluorescent protein (AH 3868), green fluorescent protein (AH3669) were grown to mid-log-phase, pelleted and resuspended in DPBS to achieve 50 μl inoculum mixtures that contained either 2×10^7 CFUs+/−5 μg apicidin (diluted in neat DMSO). Apicidin or DMSO containing inoculums were injected intradermally into abdominal skin. Baseline body weights of mice were measured before infection and every day thereafter for a period of 7 days. For determination of lesion size, digital photos of skin lesions were taken daily and analyzed via ImageJ software.
# The potent in vitro activity of apicidin encouraged an assessment of its efficacy in vivo. To this end, an intradermal challenge model was employed by delivering a single 5 μg dose of apicidin along as part of the inoculum suspension containing 2×10^7 MRSA organisms.
# [3] = molecular target: T1, AgrA (Staphylococcus aureus, UniProt P0A0I7); test: agr null agrP3 lux reporter with plasmid encoded AgrA; type: cell-based; details: agr null strain
# T1 construct: expressed in transfected cells; host or cells: agr null S. aureus agrP3-lux reporter strain
# T1 sequence (P0A0I7 whole entry): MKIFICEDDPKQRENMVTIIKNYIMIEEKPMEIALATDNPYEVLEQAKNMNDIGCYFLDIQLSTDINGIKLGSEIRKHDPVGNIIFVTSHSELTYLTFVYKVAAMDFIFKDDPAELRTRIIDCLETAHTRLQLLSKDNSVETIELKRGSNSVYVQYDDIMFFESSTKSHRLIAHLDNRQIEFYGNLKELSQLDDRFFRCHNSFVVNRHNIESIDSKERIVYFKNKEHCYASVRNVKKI
# Experimental: as §1
# [4] = system: agr activation of LAC agr-P3 lux; test: Measurement of quorum quenching in vivo (agr-P3 lux reporter strain); parameters: species or system mice
# Experimental: Inoculum preparation for assessing quorum quenching in vivo: An LAC reporter strain engineered to couple agr activation with bioluminescence, agr-P3 lux (AH2759) was grown in TSB medium+chloramphenicol, overnight at 37° C. in a shaking incubator set to 200 rpm. Overnight cultures were diluted 1:100 TSB+chloramphenicol and subcultured to an optical density of 0.1 at 600 nm hr). Bacterial cells were the pelleted and resuspended in sterile saline. […] Using the image analysis tools in living image software, circular analysis windows (of uniform area) were overlaid onto abdominal regions of interest (as depicted in FIG. 8e) and the corresponding bioluminescence values (total flux) were measured and plotted vs. time after infection.
# To this end, mice with an agr-P3 lux reporter strain were challenged and carefully monitored the kinetics of agr activation over a six-hour period immediately following infection.
# [5] = system: agr systems of Staphylococcus epidermidis isolates of each agr-type; test: agr-P3 reporter strains of S. epidermidis; type: cell-based
# [6] = system: S. aureus LAC; test: Bacterial growth (OD) in reporter time course; type: cell-based, Staphylococcus aureus
# Experimental: (§2) Apicidin was tested for quorum quenching activity against all four agr types using P3-YFP reporter strains AH1677 (type I), AH430 (type II) AH1747 (type III), and AH1872 (type IV). (28) Overnight cultures of reporter strains that were grown in TSB supplemented with Cam were inoculated at a dilution of 1:250 into fresh TSB containing Cam. 100 μL, aliquots were added to 96-well microtiter plates containing 100 μL aliquots of TSB containing Cam and 2-fold serial dilutions of apicidin. Readings were recorded at 30 min increments using a Tecan Systems Infinite M200 plate reader.
# Overnight cultures of agr strain types I, II, III, and IV were inoculated 1:500 into 5 ml of TSB (in 17×150 mm culture tubes) containing apicidin at concentrations of 100, 50, 25, 12.5, and 6.25 μg mL (28). All cultures were incubated at 37° C. with shaking (250 rpm), and growth was monitored by periodically transferring 100 μL of culture to a 96-well microtiter plate and reading OD600 in a Tecan Systems Infinite M200 plate reader. […] To quantify hemolytic activity, the filter sterilized culture supernatants from apicidin treated cultures were serially in TSB, and 50 μL aliquots were dispensed in quadruplicate into 96-well microtiter plates. […] Hemolysis was detected by the loss of turbidity as measured at OD630 using a Tecan Infinite M200 plate reader.
# [7] = system: agr (P3-YFP reporter strains, agr types I-IV); test: agr P3-YFP reporter quorum quenching assay; type: cell-based, Staphylococcus aureus
# Experimental: as §2
# [8] = system: CXCL-2 and G-CSF in lesional tissue; test: Cytokine measurements from tissue homogenates; type: in vivo, mice; details: lesional tissue one day after infection
# Experimental: Biopsy punches (4 mm), obtained from the center of skin ulcerations 1 day after infection, were homogenized with in sterile RPMI with proteinase inhibitor cocktail. The supernatants from these preparations were incubated with a multiplex bead array for IL-1β, G-CSF, KC (CXCL1), and CXCL2. Data were collected on a Luminex 200 (Luminex, Austin, Tex., USA) and analyzed with […]
# [9] = system: polymorphonuclear neutrophils (PMN) at MRSA infected skin; test: Flow cytometry of PMNs in infected skin; type: in vivo, mice
# Experimental: For skin: abdominal skin ulcerations were excised and incubated in trypsin (0.6% in PBS) for 75 min at 37° C.; then cut into small pieces and incubated in Collagenase type II (0.5 mg/ml RPMI) for 90 min at 37° C. Skin cell suspensions were generated by serial passage of skin fragments through 18 and 20 gauge syringes. IN cell suspensions were generated mincing inguinal LNs with a razor blade before by serial passage of skin fragments through 18 and 20 gauge syringes. AU tissue preps were passed through a 70 am filter before immune cell staining. For whole blood: blood was collected, washed and resuspended in Tris-buffered ammonium chloride to lyse red blood cells.
# For staining of skin, LN and whole blood preparations, the following antibodies: Anti-Ly6G (AI8), Anti-Ly6C (HK1.4), -CD11b (M1/70), CD45 (30-F11) were purchased from BioLegend. To block nonspecific binding, cells were incubated with rat anti-mouse CD16/32 FcγRIII/II (2.4G2) and vortexed prior to surface staining. In all experiments, LN or blood cells were collected on a FACS LSR using Cellquest software, and analyzed via FlowJo software. Dead cells were excluded by low forward-scatter and side-light scatter. Spectral overlaps between fluorochrome channels were corrected by automated compensation on singly stained, positive controls for each fluorochrome. In general, 50,000 cells were collected/tube. Flow cytometric analyses of agr-interference in bacterial cultures were conducted.
# [10] = system: MRSA transcriptome (LAC); test: RNA-seq of WT LAC cultures; type: cell-based, Staphylococcus aureus
# Experimental: Cultures of LAC and LAC ? agr were grown in TSB with DMSO alone or 100 µM apicidin (diluted in neat DMSO). All four cultures were grown to optical density of 1.4 at 600 nm, and the RNA was purified. The samples were subjected to DNase treatment and sample was quality was affirmed via Bioanalyzer (Agilent). […] was depleted with a Ribo-Zero rRNA Removal Kit from gram positive bacteria (Illumina). cDNA libraries were generated at the University of Iowa Genomics Division using the TruSeq Stranded mRNA Library Prep kit (Illumina). Sample were barcoded, pooled and sequenced in a 100×100 pared end reads using HiSeq_FPR3757 genome sequence using SeqMan NGen (DNASTAR) and the alignment were analyzed using ArrayStar (DNASTAR).
# To evaluate the impact of apicidin upon global transcriptional regulation RNA-seq analysis upon WT LAC cultures grown in the presence of apicidin or vehicle was conducted. For purposes of comparing the effects of apicidin upon the MRSA transcriptome with those resulting from agr deletion, parallel RNA seq-analysis of WT and Δagr preparations were performed. A four-fold cutoff as the threshold for differential gene expression was used, and apicidin altered the expression of thirty transcripts, with >50% of these representing prototypical agr targets such hla, RNAIII, psms, and spl genes (FIG. 10).
# [11] = system: AIP signal biosynthesis (AgrB/AgrD); test: Mass spectrometric measurement of AIP production (agrBD in agr null LAC); type: cell-based, Staphylococcus aureus; details: apicidin treated vs vehicle cultures
# Experimental: as §1
smiles,measurement,setting,value
CCC(=O)CCCCC[C@@H]1NC(=O)[C@H]2CCCCN2C(=O)[C@H](C(C)CC)NC(=O)[C@H](Cc2cn(OC)c3ccccc23)NC1=O (stereo partly drawn) [apicidin],quorum quenching in agr-P3 reporter strain with constitutive AgrC activity,[1],maintenance of potent quorum quenching activity
same,"inhibition of lytic activity, constitutive AgrC mutant","[1]; RBC lysis, R235H strain",dose dependent inhibition of lytic activity
same,cutaneous bacterial burden,[2],reduced; also recorded: decrease in bacterial burden was observed throughout the experiment
same,cutaneous bacterial burden,[2]; listed as Apicidin,reduced cutaneous bacterial burden
same,CFUs recovered from lesional skin,[2]; one day after infection,significantly fewer CFUs were recovered
same,skin lesion / dermatopathology,"[2]; single 5 ug dose with 2x107 MRSA, intradermal, 14 days",significantly reduced MRSA-induced dermatopathology
same,inhibition of AgrA-dependent agr-P3 reporter activation,[3],dose dependent inhibition of agr-P3 driven bioluminescence; also recorded: inhibited agr-P3 reporter activation
same,skin ulcers after agr-P3 lux reporter strain challenge,[4]; 14-day period,dramatic reduction in dermatopathology
same,agr activation in vivo,"[4]; agr-P3 lux reporter, 5 ug apicidin, first hours after infection",reduced quorum sensing activity in vivo; also recorded: significant interference of agr activation in vivo; also recorded: high level of agr interference
same,quorum quenching in S. epidermidis,[5],extend to multiple staphylococcal species
same,quorum quenching in S. epidermidis,[5]; listed as Apicidin,quorum sensing inhibition across S. epidermidis agr types
same,growth inhibition / bactericidal effect,[6],non-bactericidal; also recorded: minimal growth inhibition
same,agr inhibition relative to its analogues,[7],showed the most impressive actions as an agr inhibitor
same,MICs for quorum sensing inhibition,[7]; across S. aureus isolates,low micromolar
same,agr-type dependence of quorum quenching potency,"[7]; agr P3 driven YFP expression, time course",types II and IV representing the most sensitive and resistant respectively
same,inhibition of quorum sensing (agr P3 reporter),[7]; agr types I-IV reporter strains,inhibited quorum sensing activity across S. aureus isolates; also recorded: inhibition extends to all 4 agr types; also recorded: inhibited the quorum sensing responses of multiple agr types
same,IC50 of agr-inhibition,[7]; all agr types,μM concentrations that were sub-inhibitory for growth
same,production of CXCL-2,[8],decrease
same,production of G-CSF,[8],decrease
same,PMN density / accumulation at infected skin,[9]; 24 hours post infection,enhanced; also recorded: increased the density of PMNs within infected wounds; also recorded: augmenting their accumulation
same,frequency of PMN able to phagocytose MRSA,[9]; DsRed+ MRSA,"Though not significantly, a trend showing increased frequency"
same,number of PMNs that phagocytosed MRSA,[9]; lesional skin preparations,increased; also recorded: overall enhancement MRSA uptake within the entire network of cutaneous PMNs
same,frequency of apoptotic PMNs,"[9]; lesional skin, one day after infection",decrease in the frequency of apoptotic PMNs
same,transcriptional signature,[10],narrowly focused upon the agr virulon; also recorded: largely confined to agr-regulated transcripts
same,number of transcripts with altered expression,"[10]; 100 uM apicidin, four-fold cutoff",thirty
same,share of altered transcripts that are prototypical agr targets,[10]; four-fold cutoff,> 50%
same,effect on AIP production,[11],does not target AIP signal biosynthesis; also recorded: does not alter the release of AIP signals
